Assay results as given in ChEMBL document CHEMBL5728758, “Heterocyclic compound as Syk inhibitor and/or Syk-HDAC dual inhibitor” (2021).

How the values were obtained:
[1] = biological target: Histone deacetylase 1 (Homo sapiens, UniProt Q13547); experiment: HDAC-1 and HDAC-6 Activity Inhibition Experiment: HDAC activity was measured by the Synergy MX Multi-Function Microplate Reader. The compounds were dissolved with DMSO, and transferred to a 384 well test plate using an Echo non-contact nanoscale sonic pipetting system. 15 μl of enzyme (HDAC1/HDAC6, respectively) solvent was added, and incubated at room temperature for 15 minutes, then 10 μl of substrate (trypsin and Ac-peptide) solution was added. Fluorescence intensity signal was read directly on Synergy MX (fluorescence excitation 355 nm, emission fluorescence 460 nm) after cultivated at room temperature for 60 minutes. Fluorescence intensity signal was convented into inhibition rate data (% inhibition rate=(max−fluorescence intensity)/(max−min)*100). The max refers to the fluorescence intensity of the DMSO control, and min refers to the fluorescence intensity of the enzyme-free control. The curve was drawn with the compound concentration and inhibition rate as the horizontal and vertical coordinates, and the curve was fitted with the GraphPad Prism V5.0 Software, and IC50 was calculated.
Histone deacetylase 1, sequence (Q13547 whole entry): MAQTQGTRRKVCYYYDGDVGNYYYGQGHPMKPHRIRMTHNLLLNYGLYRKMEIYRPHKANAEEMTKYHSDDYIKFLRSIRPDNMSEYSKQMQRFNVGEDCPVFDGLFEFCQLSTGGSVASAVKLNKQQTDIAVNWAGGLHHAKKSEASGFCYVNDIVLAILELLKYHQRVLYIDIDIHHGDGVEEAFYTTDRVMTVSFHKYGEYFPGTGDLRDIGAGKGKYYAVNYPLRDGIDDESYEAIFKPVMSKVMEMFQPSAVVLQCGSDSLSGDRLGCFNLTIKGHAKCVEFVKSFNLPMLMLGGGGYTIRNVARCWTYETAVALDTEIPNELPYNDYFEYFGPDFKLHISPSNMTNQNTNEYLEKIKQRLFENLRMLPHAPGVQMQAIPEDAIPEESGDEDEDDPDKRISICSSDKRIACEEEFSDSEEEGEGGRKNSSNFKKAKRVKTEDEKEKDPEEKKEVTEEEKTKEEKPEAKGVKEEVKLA

[2] = biological target: Tyrosine-protein kinase SYK (Homo sapiens, UniProt P43405); experiment: Syk Kinase Activity Inhibitiory Experiment: Measure of SYK protein kinase activity was carried out by using the Caliper mobility shift assay. The compound was dissolved with DMSO and diluted with kinase buffer (20 mM HEPES pH 7.5, 0.01% Triton X-100, 5 mM MgCl2, 1 mM MnCl2, 2 mM DTT), and 5 μl of 5 times the final concentration of the compounds (10% DMSO) were added to 384 well plate. 10 μl of 2.5 fold enzyme (with SYK) solution was added and incubated at room temperature for 10 minutes, then 10 of 2.5 fold substrate (Peptide FAM-P22) and ATP) solution was added. The mixture was incubated for 30 minutes under 28° C., and 25 μl of stop buffer (100 mM HEPES pH 7.5, 0.015% Brij-35, 0.2% Coating Reagent #3, 50 mM EDTA) was added to terminate the reaction. Conversion rate data was read by Caliper EZ Reader II (Caliper Life Sciences). Conversion rate was converted to inhibition rate data (% inhibition rate=(max−conversion rate)/(max−min)*100). The max refers to the conversion rate of the DMSO control, and min refers to the conversion rate of the enzyme-free control. The curve was drawn with the compound concentration and inhibition rate as the horizontal and vertical coordinates, and the curve was fitted with the XLFit excel add-in version 4.3.1 Software, and IC50 was calculated.

For `O=C(CCCCCCNC(=O)c1cccc(-c2cn3ccnc3c(Nc3ccc(N4CCOCC4)cc3)n2)c1)NO`, the IC50 [1] was less than 100 nM and the IC50 [2] was less than 500 nM.
